Patent publication US5710145A, “Protein kinase C inhibitor” (priority 1996, dated 1998)
Counter-ions that a name gives are not always drawn.

Tests used:
[1] = Hygroscopicity of salts at relative humidities; format: physicochemical; details: for Hygroscopicity, RH 27%: 27% RH; for Hygroscopicity, RH 35%: 35% RH; for Hygroscopicity, RH 65%: 65% RH; for Hygroscopicity, RH 80%: 80% RH
Method: (§1) The salts were examined for hygroscopicity at relative humidities (RH) of 27%, 35%, 65% and 80% and are depicted in Table IV. The samples were subjected to vacuum initially to establish a reference point for the RH data. The amount of water contained in each salt was also determined by Karl-Fisher (coulometric).

[2] = physchem; format: physicochemical; details: for pH (saturated aq Solution): saturated aqueous solution
Method: The aqueous solubility of each salt was determined by UV analysis (Table II) and compared. […] The high pH observed with the succinate and acetate salt indicated the presence of untitrated free base.

[3] = Karl-Fisher (coulometric) water content of salts; format: physicochemical
Method: as §1

[4] = Thermogravimetric analysis (TGA) of salts; format: physicochemical; details: for TGA weight loss 20-100° C.: heated 20-100° C.; for TGA weight loss 100-200° C.: heated 100-200° C.
Method: Each salt was analyzed by TGA, DSC and Mettler hot stage microscopy and compared (Table III). […] The samples were also examined by hot stage microscopy using a Mettler hot stage.

[5] = biological target: Protein Kinase C; assay: Protein kinase C inhibitor activity / selectivity (Calcium Calmodulin Dependent Protein Kinase, Casein Protein Kinase II, cAMP-Dependent Protein Kinase Catalytic Subunit and Protein-Tyrosine Kinase assays); format: biochemical
Method: As previously stated, the compound of the present invention are active as selective Protein Kinase C inhibitors. The activity of compound is disclosed in Heath et al., EP 0 657 458, published on Jun. 14, 1995. The activity was determined in the Calcium Calmodulin Dependent Protein Kinase Assay, Casein Protein Kinase II assay, cAMP-Dependent Protein Kinase Catalytic Subunit assay and the Protein-Tyrosine Kinase assay. […] Conditions recognized in the art include: diabetes mellitus and its complications (including retinopathy, neuropathy and nephropathy), ischemia, inflammation, central nervous system disorders, cardiovascular disease, Alzheimer's disease, dermatological disease and cancer.

[6] = Oral bioavailability of HCl and mesylate salts in dogs, single 20 mg/kg dose, cross-over; format: in vivo, Male Beagle Dogs
Method: Because the hydrochloride salt is the most common pharmaceutical salt and is specifically disclosed in Heath et al., EP 0 657 458, published on Jun. 14, 1995 (Example 5), a biological comparison of the mesylate and HCl salt was carried out. […] The bioavailability of the salt forms was measured in four Male Beagle Dogs by orally administering a single 20 mg/kg dose of the HCl and the claimed mesylate salt in a 10% acacia suspension. One week washout period was allowed between doses. Doses were administered in a cross-over design (2 dogs/salt/study dog). The plasma concentration of the active compound as well as an active metabolite was monitored. […] This represents an approximately 260% increase in plasma concentration of the compound and the metabolite.
The plasma concentration of the compound as well as the metabolite was also plotted as a function of time during the study. The ratio of the area under the concentration curve (AUC) represents a measure of bioavailability of the compound to the patient. The AUC ratio for the HCl salt and the claimed mesylate was calculated and is depicted in Table VI.

| SMILES | Hygroscopicity, RH 27% [1] [wt % initial] | Hygroscopicity, RH 35% [1] [wt % initial] | Hygroscopicity, RH 65% [1] [wt % initial] | Hygroscopicity, RH 80% [1] [wt % initial] | Hygroscopicity, Vacuum [1] [wt % initial] | pH (saturated aq Solution) [2] | Aqueous solubility (base) ([2]; water) [μg base/mL H2 O] | Aqueous solubility (salt) ([2]; water) [μg salt/mL H2 O] | K. F. (Karl-Fisher water) [3] [%] | TGA weight loss 20-100° C. [4] [% wt loss] | TGA weight loss 100-200° C. [4] [% wt loss] | other results |
| --- | --- | --- | --- | --- | --- | --- | --- | --- | --- | --- | --- | --- |
| CN(C)C[C@@H]1CCn2cc(c3ccccc32)C2=C(C(=O)NC2=O)c2cn(c3ccccc23)CCO1 [Acetate] | 98.6 | 99.2 | 100.2 | 100.6 | 99.4 | 7.80 | 0.9 | 1 | 0.3 | 0.77 | 1.44 | – |
| CN(C)C[C@@H]1CCn2cc(c3ccccc32)C2=C(C(=O)NC2=O)c2cn(c3ccccc23)CCO1 [HCl] | 98.2 | 99.3 | 100.4 | 100.6 | 98.7 | 4.98 | 249 | – | 1.3 | 1.42 | 0.9 | aqueous solubility ([2]; water): 268 µg/mL |
| CN(C)C[C@@H]1CCn2cc(c3ccccc32)C2=C(C(=O)NC2=O)c2cn(c3ccccc23)CCO1 [Mesylate, (S)-13-[(dimethylamino)methyl]-10,11,14,15-tetrahydro-4,9:16,21-dimetheno-1H, 13H-dibenzo[E,K]pyrrolo[3,4-H][1,4,13]oxadiazacyclohexadecine-1,3(2H)-dione] | 98.5 | 99.4 | 100.7 | 104.4 | 99.0 | 4.69 | 1460 | – | 3.6 | 3.97 | – | IC50 [5]: < 10 µM; activity and isozyme selectivity [5]: active and isozyme selective; effect of chloride on aqueous solubility [2]: drops markedly with the addition of chloride; effect of pH on aqueous solubility [2]: drops markedly at either higher or lower pH; pH of optimal aqueous solubility [2]: 4.0 to 5.0 pH; aqueous solubility ([2]; water): 1760 µg/mL; solubility ([2]; water, pH 4.5, water, aqueous solubility at most preferred pH): 2250 µg/mL; increase in plasma concentration of the compound and the metabolite ([6]; dog, in vivo, po, 20 mg/kg): approximately 260%; plasma concentrations of compound and metabolite vs HCl salt ([6]; each dog, equivalent oral dose): Higher plasma concentrations |
| CN(C)C[C@@H]1CCn2cc(c3ccccc32)C2=C(C(=O)NC2=O)c2cn(c3ccccc23)CCO1 [Phosphate] | 98.6 | 102.6 | 105.5 | 106.6 | 98.2 | 3.78 | 609 | 736 | 4.6 | 5.50 | – | hygroscopicity ranking ([1]; vacuum to 80% RH): most hygroscopic; TGA weight loss 20-100° C. ([4]; listed as phosphate): 5.50 % wt loss |
| CN(C)C[C@@H]1CCn2cc(c3ccccc32)C2=C(C(=O)NC2=O)c2cn(c3ccccc23)CCO1 [Succinate] | 98.5 | 99.1 | 100.0 | 100.5 | 99.3 | 7.72 | 0.4 | 0.5 | 0.2 | 0.73 | 1.90 | – |
| CN(C)C[C@@H]1CCn2cc(c3ccccc32)C2=C(C(=O)NC2=O)c2cn(c3ccccc23)CCO1 [Sulfate] | 98.4 | 99.8 | 100.9 | 101.9 | 98.9 | 2.57 | 12 | 14 | 4.9 | 5.50 | – | TGA weight loss 20-100° C. ([4]; listed as sulfate): 5.50 % wt loss |
| CN(C)C[C@@H]1CCn2cc(c3ccccc32)C2=C(C(=O)NC2=O)c2cn(c3ccccc23)CCO1 [Tartrate] | 98.2 | 101.3 | 103.8 | 105.4 | 97.9 | 3.77 | 54 | 71 | 5.1 | 5.50 | – | TGA weight loss 20-100° C. ([4]; listed as tartrate): 5.50 % wt loss |
